{"source": "paper PMC12394658", "about": "“Discovery of Zharp1-163 as a dual inhibitor of ferroptosis and necroptosis for the treatment of inflammatory disorders and kidney injury” (Cell Death Discovery, 2025)", "assay_in_all_cases": "biochemical", "design_in_all_cases": "Kinase selectivity panel of 81 human kinases, ADP-Glo or HTRF, per cent inhibition at 1 uM", "key": {"[1]": {"target": "T1, AurB (Homo sapiens, UniProt Q96GD4)", "T1 construct": "gene AURKB", "T1 sequence (Q96GD4 whole entry)": "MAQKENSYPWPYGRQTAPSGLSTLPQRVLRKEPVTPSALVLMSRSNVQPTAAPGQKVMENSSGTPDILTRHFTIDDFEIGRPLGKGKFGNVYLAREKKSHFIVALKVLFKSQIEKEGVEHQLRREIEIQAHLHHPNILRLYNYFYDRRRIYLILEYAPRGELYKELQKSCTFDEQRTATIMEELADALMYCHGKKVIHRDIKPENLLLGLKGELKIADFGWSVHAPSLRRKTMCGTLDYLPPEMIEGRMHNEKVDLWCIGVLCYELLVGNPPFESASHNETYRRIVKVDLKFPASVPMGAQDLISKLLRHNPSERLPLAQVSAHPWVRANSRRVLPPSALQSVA", "experimental": "(§1) We next sought to determine the binding affinity of Zharp1-163 for RIPK1 or RIPK3 via a binding assay (Fig. 4A). […] Further, we evaluated the selectivity of Zharp1-163 against a panel of 81 kinases (at 1000 nM). […] To elucidate the binding interactions between Zharp1-163 and RIPK1 kinase, we conducted molecular docking studies using the RIPK1 crystal structure (PDB ID: 4NEU). The predicted binding conformations and interaction patterns between Zharp1-163 and the RIPK1 kinase domain are presented in Fig. 4D, E. Like the cocrystallized ligand in the 4NEU crystal complex, Zharp1-163 was predicted to act as a typical type II kinase inhibitor, interacting with the DLG (Asp156-Leu157-Gly158)-out conformation of RIPK1 (Fig. 4D, E). The 2-aminoimidazo [1,2-a] pyridine moiety of Zharp1-163 formed hydrogen bonds with Met95 in the hinge region. Furthermore, the carboxylate group of Zharp1-163 established hydrogen bonds with Asp156 in the DLG-out region. Additionally, the saturated ring of Zharp1-163 was deeply embedded within the hydrophobic allosteric pocket formed by the residues Met66, Met67, Leu70, Val76, Leu129, and Leu159, which is created by the DLG-out conformation in RIPK1 (Fig. 4D, E).  Fig. 4 Zharp1-163 is a selective inhibitor of RIPK1 kinase activity. A Binding affinity curve of Zharp1-163 with RIPK1 and RIPK3. B In an in vitro kinase activity assay, recombinant RIPK1 was incubated with Zharp1-163, after which RIPK1 kinase activity was determined by measuring ATP levels via a luciferase reporter assay system. […] Kinases are marked with dots, where the color of each kinase indicates the level of inhibition achieved by Zharp1-163. D Predicted binding conformation of Zharp1-163. E Schematic representation of the interaction patterns between Zharp1-163 and the key residues in the binding pocket of the RIPK1 kinase. […] NIH3T3-RIPK3 cells were pretreated with the indicated concentrations of Zharp1-163 for 2 h and then treated with AP20187 (100 nM) for 24 h. Cell viability was determined by measuring ATP levels. […] HeLa-MLKL (1–190) cells were pretreated with the indicated concentrations of Zharp1-163 for 2 h and subsequently treated with AP20187 (100 nM) for 24 h. Cell viability was determined by measuring ATP levels. H Viability of IFNβ-primed MEFs at 18 h after stimulation with poly(I:C) plus z-VAD and treatment with Zharp1-163 (10 μM). I Effects of different concentrations of Zharp1-163 on WT or RIPK1 KO HT-29 cells. Cell viability was determined by measuring ATP levels. The data are presented as the mean ± SD of triplicate samples."}, "[2]": {"target": "CDK18/CycY (Homo sapiens, UniProt Q07002)", "sequence (Q07002 whole entry)": "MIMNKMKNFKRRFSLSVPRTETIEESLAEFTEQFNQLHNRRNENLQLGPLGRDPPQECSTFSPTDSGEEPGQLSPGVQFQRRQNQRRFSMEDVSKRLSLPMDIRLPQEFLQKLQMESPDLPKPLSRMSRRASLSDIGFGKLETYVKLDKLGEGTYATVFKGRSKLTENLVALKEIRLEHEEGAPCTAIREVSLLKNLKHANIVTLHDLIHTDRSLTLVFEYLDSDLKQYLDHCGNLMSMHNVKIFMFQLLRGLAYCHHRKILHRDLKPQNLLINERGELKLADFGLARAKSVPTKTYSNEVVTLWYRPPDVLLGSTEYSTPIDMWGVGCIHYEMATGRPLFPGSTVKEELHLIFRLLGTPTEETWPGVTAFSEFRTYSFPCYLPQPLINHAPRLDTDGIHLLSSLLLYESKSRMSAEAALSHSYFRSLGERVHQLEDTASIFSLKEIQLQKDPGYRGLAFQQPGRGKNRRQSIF", "sequence (Q8ND76 whole entry partner)": "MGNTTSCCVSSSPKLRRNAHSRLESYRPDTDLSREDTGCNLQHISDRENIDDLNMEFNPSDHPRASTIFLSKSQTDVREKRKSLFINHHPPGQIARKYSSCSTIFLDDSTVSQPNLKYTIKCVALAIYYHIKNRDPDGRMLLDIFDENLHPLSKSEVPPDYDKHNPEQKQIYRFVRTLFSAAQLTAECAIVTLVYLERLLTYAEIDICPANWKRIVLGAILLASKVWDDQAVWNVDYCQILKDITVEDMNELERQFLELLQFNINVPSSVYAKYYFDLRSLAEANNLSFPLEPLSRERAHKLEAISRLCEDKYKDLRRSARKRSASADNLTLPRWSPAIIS", "experimental": "as §1"}, "[3]": {"target": "T2, CDK5/p35NCK (Homo sapiens, UniProt Q00535)", "T2 construct": "p35NCK", "T2 sequence (Q00535 whole entry)": "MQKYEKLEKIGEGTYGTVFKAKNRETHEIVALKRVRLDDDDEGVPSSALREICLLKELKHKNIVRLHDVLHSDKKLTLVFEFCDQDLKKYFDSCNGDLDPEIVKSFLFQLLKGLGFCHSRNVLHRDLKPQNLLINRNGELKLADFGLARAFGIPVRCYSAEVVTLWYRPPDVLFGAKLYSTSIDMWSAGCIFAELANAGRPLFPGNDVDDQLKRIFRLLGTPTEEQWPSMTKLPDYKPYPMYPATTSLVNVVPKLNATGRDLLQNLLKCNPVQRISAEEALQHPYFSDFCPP", "T2 sequence (Q15078 whole entry partner)": "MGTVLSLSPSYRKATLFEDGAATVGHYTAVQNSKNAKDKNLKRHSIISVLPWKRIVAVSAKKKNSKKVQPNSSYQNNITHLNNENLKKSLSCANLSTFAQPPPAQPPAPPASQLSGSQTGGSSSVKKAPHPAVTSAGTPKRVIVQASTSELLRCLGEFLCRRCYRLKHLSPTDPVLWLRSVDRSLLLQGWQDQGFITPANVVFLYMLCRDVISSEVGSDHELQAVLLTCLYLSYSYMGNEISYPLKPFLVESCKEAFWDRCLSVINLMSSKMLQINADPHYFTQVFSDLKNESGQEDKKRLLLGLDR", "experimental": "as §1"}, "[4]": {"target": "CLK1 (Homo sapiens, UniProt P49759)", "sequence (P49759 whole entry)": "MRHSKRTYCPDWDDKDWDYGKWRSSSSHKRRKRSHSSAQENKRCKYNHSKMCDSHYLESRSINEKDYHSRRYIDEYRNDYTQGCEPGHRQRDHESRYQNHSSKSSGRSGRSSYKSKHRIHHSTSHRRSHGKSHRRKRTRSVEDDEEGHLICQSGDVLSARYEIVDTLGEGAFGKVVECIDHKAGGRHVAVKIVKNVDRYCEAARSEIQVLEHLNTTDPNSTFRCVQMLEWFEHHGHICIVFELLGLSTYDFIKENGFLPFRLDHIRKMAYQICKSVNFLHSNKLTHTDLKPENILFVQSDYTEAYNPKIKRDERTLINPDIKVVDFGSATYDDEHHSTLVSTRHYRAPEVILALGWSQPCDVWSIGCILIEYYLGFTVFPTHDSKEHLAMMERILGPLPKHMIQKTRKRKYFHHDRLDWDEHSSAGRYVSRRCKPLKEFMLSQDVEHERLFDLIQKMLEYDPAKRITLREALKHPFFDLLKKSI", "experimental": "as §1"}, "[5]": {"target": "DAPK1 (Homo sapiens, UniProt P53355)", "experimental": "as §1"}, "[6]": {"target": "T3, Erk7 (Homo sapiens, UniProt Q8TD08)", "T3 construct": "gene MAPK15", "T3 sequence (Q8TD08 whole entry)": "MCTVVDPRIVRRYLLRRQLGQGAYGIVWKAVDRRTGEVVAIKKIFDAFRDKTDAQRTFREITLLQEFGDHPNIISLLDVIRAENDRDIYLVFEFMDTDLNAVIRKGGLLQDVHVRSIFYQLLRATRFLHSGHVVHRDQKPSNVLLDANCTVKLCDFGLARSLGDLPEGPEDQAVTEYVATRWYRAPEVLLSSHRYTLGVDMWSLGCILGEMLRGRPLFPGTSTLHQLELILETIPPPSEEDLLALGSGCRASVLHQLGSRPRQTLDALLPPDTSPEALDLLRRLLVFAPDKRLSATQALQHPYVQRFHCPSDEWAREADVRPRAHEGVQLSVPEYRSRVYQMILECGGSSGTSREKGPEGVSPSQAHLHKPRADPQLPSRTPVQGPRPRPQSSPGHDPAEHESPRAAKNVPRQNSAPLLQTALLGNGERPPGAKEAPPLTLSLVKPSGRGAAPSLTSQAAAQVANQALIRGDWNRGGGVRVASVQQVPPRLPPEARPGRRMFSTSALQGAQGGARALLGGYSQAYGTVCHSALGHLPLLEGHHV", "experimental": "as §1"}, "[7]": {"target": "HIPK1 (Homo sapiens, UniProt Q86Z02)", "experimental": "as §1"}, "[8]": {"target": "T4, IKKα (Homo sapiens, UniProt O15111)", "T4 construct": "gene CHUK", "T4 sequence (O15111 whole entry)": "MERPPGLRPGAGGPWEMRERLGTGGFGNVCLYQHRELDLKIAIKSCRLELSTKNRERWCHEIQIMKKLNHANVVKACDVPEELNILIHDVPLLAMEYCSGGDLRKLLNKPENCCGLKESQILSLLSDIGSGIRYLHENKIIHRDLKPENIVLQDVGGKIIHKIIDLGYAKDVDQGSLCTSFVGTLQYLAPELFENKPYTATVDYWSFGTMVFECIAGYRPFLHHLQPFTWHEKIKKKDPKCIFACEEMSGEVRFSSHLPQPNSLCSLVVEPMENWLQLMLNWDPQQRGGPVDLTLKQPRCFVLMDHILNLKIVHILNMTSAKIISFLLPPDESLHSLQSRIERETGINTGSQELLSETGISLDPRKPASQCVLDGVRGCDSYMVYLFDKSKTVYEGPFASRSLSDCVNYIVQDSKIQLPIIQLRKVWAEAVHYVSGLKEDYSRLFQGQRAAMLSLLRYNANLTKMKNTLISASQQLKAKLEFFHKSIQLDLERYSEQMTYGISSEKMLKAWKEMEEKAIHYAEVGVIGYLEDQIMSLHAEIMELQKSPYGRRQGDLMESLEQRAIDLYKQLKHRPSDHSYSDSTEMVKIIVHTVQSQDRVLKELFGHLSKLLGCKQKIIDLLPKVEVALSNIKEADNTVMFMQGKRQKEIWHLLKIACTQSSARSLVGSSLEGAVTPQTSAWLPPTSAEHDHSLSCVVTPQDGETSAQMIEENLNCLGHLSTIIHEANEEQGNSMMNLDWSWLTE", "experimental": "as §1"}, "[9]": {"target": "ITK (Homo sapiens, UniProt Q08881)", "experimental": "as §1"}, "[10]": {"target": "T5, JNK1 (Homo sapiens, UniProt P45983)", "T5 construct": "gene MAPK8", "T5 sequence (P45983 whole entry)": "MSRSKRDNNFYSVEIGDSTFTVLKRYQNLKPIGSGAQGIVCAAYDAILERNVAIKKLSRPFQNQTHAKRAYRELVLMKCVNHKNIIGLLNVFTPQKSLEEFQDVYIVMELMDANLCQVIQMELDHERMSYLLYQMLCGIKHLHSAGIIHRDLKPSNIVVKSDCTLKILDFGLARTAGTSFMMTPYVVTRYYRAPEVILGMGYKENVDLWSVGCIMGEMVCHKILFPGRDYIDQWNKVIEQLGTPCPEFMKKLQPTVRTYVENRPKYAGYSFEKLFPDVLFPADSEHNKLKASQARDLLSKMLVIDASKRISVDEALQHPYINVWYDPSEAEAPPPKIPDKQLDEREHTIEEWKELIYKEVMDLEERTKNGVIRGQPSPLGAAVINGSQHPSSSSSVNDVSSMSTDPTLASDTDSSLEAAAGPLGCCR", "experimental": "as §1"}, "[11]": {"target": "KDR (Homo sapiens, UniProt P35968)", "experimental": "as §1"}, "[12]": {"target": "ROCK1 (Homo sapiens, UniProt Q13464)", "experimental": "as §1"}, "[13]": {"target": "T6, RSK1 (Homo sapiens, UniProt Q15418)", "T6 construct": "gene RPS6KA1", "T6 sequence (Q15418 whole entry)": "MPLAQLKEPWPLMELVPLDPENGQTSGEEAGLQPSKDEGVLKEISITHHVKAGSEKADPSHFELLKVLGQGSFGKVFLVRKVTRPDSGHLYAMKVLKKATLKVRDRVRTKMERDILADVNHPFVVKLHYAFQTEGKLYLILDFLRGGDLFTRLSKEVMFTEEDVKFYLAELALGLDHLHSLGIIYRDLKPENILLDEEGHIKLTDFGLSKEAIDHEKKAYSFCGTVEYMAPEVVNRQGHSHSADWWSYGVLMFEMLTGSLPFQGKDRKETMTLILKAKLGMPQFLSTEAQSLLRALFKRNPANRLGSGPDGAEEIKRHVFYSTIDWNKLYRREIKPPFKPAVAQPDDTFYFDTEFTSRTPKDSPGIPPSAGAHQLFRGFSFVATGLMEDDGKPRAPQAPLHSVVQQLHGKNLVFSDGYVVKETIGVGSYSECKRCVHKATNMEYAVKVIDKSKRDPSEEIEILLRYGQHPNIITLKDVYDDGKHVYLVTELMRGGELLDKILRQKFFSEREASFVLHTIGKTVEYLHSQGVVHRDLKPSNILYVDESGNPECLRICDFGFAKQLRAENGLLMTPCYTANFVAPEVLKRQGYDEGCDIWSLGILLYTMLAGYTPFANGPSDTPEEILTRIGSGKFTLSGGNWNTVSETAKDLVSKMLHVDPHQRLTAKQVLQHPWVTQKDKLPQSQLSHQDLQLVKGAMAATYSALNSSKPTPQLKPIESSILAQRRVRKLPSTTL", "experimental": "as §1"}, "[14]": {"target": "TAOK1 (Homo sapiens, UniProt Q7L7X3)", "experimental": "as §1"}}, "data": [{"smiles": "Nc1cn2cc(-c3cnc4c(c3)N(C(=O)OC3CCCCC3)CCO4)ccc2n1", "note": "[Zharp1-163]", "values": [{"measurement": "inhibition at 1 µM", "setting": "[1]; replicate Data1", "result": 8.89, "unit": "%"}, {"measurement": "inhibition at 1 µM", "setting": "[1]; replicate Data2", "result": 13.4, "unit": "%"}, {"measurement": "inhibition at 1 µM", "setting": "[2]; replicate Data1", "result": 4.89, "unit": "%"}, {"measurement": "inhibition at 1 µM", "setting": "[2]; replicate Data2", "result": -0.64, "unit": "%"}, {"measurement": "inhibition at 1 µM", "setting": "[3]; replicate Data1", "result": 7.89, "unit": "%"}, {"measurement": "inhibition at 1 µM", "setting": "[3]; replicate Data2", "result": 1.25, "unit": "%"}, {"measurement": "inhibition at 1 µM", "setting": "[4]; replicate Data1", "result": 38.1, "unit": "%"}, {"measurement": "inhibition at 1 µM", "setting": "[4]; replicate Data2", "result": 33.2, "unit": "%"}, {"measurement": "inhibition at 1 µM", "setting": "[5]; replicate Data1", "result": 9.17, "unit": "%"}, {"measurement": "inhibition at 1 µM", "setting": "[5]; replicate Data2", "result": -5.62, "unit": "%"}, {"measurement": "inhibition at 1 µM", "setting": "[6]; replicate Data1", "result": 5.82, "unit": "%"}, {"measurement": "inhibition at 1 µM", "setting": "[6]; replicate Data2", "result": 0.29, "unit": "%"}, {"measurement": "inhibition at 1 µM", "setting": "[7]; replicate Data1", "result": 8.39, "unit": "%"}, {"measurement": "inhibition at 1 µM", "setting": "[7]; replicate Data2", "result": -1.36, "unit": "%"}, {"measurement": "inhibition at 1 µM", "setting": "[8]; replicate Data1", "result": 0.19, "unit": "%"}, {"measurement": "inhibition at 1 µM", "setting": "[8]; replicate Data2", "result": 7.24, "unit": "%"}, {"measurement": "inhibition at 1 µM", "setting": "[9]; replicate Data1", "result": 19.4, "unit": "%"}, {"measurement": "inhibition at 1 µM", "setting": "[9]; replicate Data2", "result": 18.5, "unit": "%"}, {"measurement": "inhibition at 1 µM", "setting": "[10]; replicate Data1", "result": 6.2, "unit": "%"}, {"measurement": "inhibition at 1 µM", "setting": "[10]; replicate Data2", "result": 5.09, "unit": "%"}, {"measurement": "inhibition at 1 µM", "setting": "[11]; replicate Data1", "result": -2.59, "unit": "%"}, {"measurement": "inhibition at 1 µM", "setting": "[11]; replicate Data2", "result": -4.74, "unit": "%"}, {"measurement": "inhibition at 1 µM", "setting": "[12]; replicate Data1", "result": 2.59, "unit": "%"}, {"measurement": "inhibition at 1 µM", "setting": "[12]; replicate Data2", "result": 4.57, "unit": "%"}, {"measurement": "inhibition at 1 µM", "setting": "[13]; replicate Data1", "result": 6.09, "unit": "%"}, {"measurement": "inhibition at 1 µM", "setting": "[13]; replicate Data2", "result": 5.81, "unit": "%"}, {"measurement": "inhibition at 1 µM", "setting": "[14]; replicate Data1", "result": 2.07, "unit": "%"}, {"measurement": "inhibition at 1 µM", "setting": "[14]; replicate Data2", "result": -4.35, "unit": "%"}]}]}
